From patent US11524945B2, “Compounds for treating ILK-mediated diseases” (The Cleveland Clinic Foundation, priority 2018, dated 2022)
In brackets after ≈: the same amount, converted by molar mass. Entries after “also recorded” stand apart in the source; their conditions may differ. Where two headings read alike, the source gives them in different places.

Columns and labels:
CYP 2A6 = CYP 2A6 (Homo sapiens (Human), UniProt P11509); assay: CYP inhibition in human liver microsomes, 2A6; type: in vitro ADME
Sequence of CYP 2A6 (P11509 whole entry): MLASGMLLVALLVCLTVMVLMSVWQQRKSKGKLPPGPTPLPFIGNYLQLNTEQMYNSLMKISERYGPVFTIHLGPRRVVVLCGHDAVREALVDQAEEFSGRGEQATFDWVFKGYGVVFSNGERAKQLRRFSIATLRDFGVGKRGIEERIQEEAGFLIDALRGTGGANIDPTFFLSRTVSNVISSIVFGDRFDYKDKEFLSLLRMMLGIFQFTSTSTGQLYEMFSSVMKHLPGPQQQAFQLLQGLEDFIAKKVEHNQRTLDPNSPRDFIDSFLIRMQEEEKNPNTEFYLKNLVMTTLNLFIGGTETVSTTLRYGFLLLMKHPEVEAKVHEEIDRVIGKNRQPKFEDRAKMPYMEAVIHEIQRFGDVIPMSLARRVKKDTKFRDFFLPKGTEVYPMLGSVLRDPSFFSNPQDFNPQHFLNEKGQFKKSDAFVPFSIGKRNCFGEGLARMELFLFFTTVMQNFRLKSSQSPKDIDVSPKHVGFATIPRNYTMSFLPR

Stability in rat plasma = type: in vitro ADME
CYP 3A4-M = CYP 3A4-M (Homo sapiens (Human), UniProt P08684); assay: CYP inhibition in human liver microsomes, 3A4-M; type: in vitro ADME
Sequence of CYP 3A4-M (P08684 whole entry): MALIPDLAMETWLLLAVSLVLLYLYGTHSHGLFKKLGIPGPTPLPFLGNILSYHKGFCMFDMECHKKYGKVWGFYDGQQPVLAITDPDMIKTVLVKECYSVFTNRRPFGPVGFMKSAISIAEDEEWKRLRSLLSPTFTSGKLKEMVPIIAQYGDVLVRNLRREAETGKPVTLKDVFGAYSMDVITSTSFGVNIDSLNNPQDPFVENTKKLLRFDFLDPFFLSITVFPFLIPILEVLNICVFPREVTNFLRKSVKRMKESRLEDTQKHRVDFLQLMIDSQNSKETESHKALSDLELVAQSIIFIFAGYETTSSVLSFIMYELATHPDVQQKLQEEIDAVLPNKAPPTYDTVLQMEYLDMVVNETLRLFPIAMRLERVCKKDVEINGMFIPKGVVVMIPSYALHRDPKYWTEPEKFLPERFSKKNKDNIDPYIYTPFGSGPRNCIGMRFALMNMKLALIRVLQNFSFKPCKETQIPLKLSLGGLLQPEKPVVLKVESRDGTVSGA

[1] = Stability in human plasma; type: in vitro ADME
purified recombinant ILK = purified recombinant ILK (Homo sapiens (Human), UniProt Q13418); assay: ILK binding affinity, EnSpire fluorescence intensity
Sequence of purified recombinant ILK (Q13418 whole entry): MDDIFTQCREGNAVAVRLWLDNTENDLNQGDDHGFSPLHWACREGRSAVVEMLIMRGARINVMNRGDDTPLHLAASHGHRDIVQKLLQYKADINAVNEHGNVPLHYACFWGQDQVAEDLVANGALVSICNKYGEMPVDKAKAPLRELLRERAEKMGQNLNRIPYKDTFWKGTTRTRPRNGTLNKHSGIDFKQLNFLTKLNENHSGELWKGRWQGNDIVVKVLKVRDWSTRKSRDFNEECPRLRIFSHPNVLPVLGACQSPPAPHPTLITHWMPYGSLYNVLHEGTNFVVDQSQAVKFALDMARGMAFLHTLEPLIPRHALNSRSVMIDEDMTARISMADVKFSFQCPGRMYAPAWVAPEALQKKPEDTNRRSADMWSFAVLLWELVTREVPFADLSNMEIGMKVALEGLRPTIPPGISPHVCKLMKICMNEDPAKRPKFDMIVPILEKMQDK

CYP 2B6 = CYP 2B6 (Homo sapiens (Human), UniProt P20813); assay: CYP inhibition in human liver microsomes, 2B6; type: in vitro ADME
Sequence of CYP 2B6 (P20813 whole entry): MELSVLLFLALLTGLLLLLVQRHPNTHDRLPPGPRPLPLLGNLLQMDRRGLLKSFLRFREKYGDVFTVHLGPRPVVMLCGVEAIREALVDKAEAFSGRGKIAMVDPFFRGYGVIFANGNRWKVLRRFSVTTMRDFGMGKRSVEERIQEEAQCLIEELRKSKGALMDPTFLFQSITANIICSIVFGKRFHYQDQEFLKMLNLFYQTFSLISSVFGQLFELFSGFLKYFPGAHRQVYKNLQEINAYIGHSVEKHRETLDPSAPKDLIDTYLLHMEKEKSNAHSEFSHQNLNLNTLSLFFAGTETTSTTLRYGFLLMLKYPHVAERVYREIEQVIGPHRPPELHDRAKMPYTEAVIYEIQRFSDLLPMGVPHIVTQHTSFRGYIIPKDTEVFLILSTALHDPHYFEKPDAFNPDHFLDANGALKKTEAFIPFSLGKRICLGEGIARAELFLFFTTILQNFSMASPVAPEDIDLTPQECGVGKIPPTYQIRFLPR

[2] = Stability in mouse plasma; type: in vitro ADME
kinases = assay: proteomic off target analysis vs known kinase inhibitors; conditions: FIG. 3, against FDA-approved kinase inhibitors
Source text: Higher selectivity score means stronger off target effects.
To elucidate definitively how Csbl-1 specifically binds to ILK, we determined the crystal structure of Csbl-1/ILK complex. […] Thus our structure provides a hypothetical atomic basis for understanding why Csbl-1 binds selectively to ILK but unfavorably to EGFR (Table 1).

CYP 2D6 = CYP 2D6 (Homo sapiens (Human), UniProt P10635); assay: biochemical; type: in vitro ADME; conditions: Human Liver Microsomes
Sequence of CYP 2D6 (P10635 whole entry): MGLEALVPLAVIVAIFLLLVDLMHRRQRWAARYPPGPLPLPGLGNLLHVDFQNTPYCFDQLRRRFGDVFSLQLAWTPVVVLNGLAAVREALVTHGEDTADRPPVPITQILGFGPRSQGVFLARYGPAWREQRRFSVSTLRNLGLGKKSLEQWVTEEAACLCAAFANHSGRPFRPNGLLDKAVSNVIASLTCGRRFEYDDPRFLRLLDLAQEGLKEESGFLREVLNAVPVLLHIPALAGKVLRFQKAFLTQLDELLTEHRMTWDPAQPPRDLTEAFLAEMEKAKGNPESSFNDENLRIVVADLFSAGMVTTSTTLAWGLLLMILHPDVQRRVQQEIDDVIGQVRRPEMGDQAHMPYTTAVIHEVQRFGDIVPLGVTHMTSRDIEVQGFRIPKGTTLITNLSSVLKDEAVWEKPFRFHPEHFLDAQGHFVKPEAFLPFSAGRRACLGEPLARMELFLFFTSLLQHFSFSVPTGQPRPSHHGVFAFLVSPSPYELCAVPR

CYP 2C19 = CYP 2C19 (Homo sapiens (Human), UniProt P33261); assay: CYP inhibition in human liver microsomes, 2C19; type: in vitro ADME
Sequence of CYP 2C19 (P33261 whole entry): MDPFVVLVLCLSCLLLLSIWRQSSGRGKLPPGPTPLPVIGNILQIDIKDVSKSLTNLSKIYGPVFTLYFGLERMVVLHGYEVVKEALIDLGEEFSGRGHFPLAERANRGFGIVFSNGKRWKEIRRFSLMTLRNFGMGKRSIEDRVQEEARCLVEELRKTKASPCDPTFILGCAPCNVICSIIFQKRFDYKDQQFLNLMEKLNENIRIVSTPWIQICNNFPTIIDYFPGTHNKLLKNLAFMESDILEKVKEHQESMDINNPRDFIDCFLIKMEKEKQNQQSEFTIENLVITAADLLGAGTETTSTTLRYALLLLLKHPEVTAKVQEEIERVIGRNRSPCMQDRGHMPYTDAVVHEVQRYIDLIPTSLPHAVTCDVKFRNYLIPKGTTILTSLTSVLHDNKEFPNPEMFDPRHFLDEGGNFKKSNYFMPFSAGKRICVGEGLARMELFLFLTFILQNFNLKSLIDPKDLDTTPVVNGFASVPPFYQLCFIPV

[3] = Permeability in Caco2 cell line; type: in vitro ADME; conditions: human
[4] = Protein binding in rat plasma; type: in vitro ADME
[5] = system: human derived patient TNBC tumor (PDX); assay: TNBC PDX mice; type: in vivo; conditions: 200 mg/kg orally five times/week, in olive oil; day 27; listed as Csbl-1
Protocol: FIG. 8, panels A-C, show the effect of Csbl-1 on TNBC PDX mice. Csbl-1 was dissolved in olive oil. Five mice with TNBC were treated orally with Csbl-1 at 200 mg/kg five times/week vs 4 control mice without the treatment.
The next step was to evaluate the effect of Csbl-1 in mice bearing TNBC tumors. Given the fact that higher ILK expression level is correlated with poor outcome and reduced survival for TNBC patients (FIG. 6) and the above TNBC cell-based data, we decided to test whether Csbl-1 would be effective in suppressing the TNBC tumors in mice. […] Xenograft TNBC tumors were generated using MDA-MB231 on 8 mice. […] when the tumors were ˜3 mm, 4 mice were fed with Csbl-1 at 100 mg/kg five times/week and the other 4 mice (control, no drug) had no Csbl-1 treatment. […] We also examined the Csbl-1 effect on the mouse models with human derived patient TNBC tumor (PDX).

[6] = Protein binding in mouse plasma; type: in vitro ADME
[7] = Metabolic stability in rat liver microsomes; type: in vitro ADME; conditions: for Remaining Percentage (%): Rat
CYP 2C9 = CYP 2C9 (Homo sapiens (Human), UniProt P11712); assay: CYP inhibition in human liver microsomes, 2C9; type: in vitro ADME
Sequence of CYP 2C9 (P11712 whole entry): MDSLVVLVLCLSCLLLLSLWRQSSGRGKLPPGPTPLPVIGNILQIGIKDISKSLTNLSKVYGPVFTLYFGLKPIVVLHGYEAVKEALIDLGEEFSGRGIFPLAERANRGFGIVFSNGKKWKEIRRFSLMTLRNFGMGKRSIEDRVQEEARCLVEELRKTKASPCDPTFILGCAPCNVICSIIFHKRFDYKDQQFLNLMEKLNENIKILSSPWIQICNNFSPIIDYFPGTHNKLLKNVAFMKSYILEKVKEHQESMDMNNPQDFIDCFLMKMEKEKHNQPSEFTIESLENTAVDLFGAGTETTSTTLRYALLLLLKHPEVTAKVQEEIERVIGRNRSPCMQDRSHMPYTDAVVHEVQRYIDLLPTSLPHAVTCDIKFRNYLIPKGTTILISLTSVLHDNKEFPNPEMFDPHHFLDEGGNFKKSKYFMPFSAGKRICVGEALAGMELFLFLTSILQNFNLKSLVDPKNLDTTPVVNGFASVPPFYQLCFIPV

[8] = Metabolic stability in mouse liver microsomes; type: in vitro ADME; conditions: for Remaining Percentage (%): Mouse
HepG2 cells = assay: Mitochondrial toxicity in HepG2 cells; type: cell-based; conditions: for IC50: Homo sapiens, HepG2 cells
[9] = Solubility in PBS at pH 7.4; type: physicochemical; conditions: aqueous buffer
EGFR = EGFR (Homo sapiens (Human), UniProt P00533); assay: EGFR binding affinity, EnSpire fluorescence intensity; conditions: same experimental conditions as ILK
Sequence of EGFR (P00533 25-1210): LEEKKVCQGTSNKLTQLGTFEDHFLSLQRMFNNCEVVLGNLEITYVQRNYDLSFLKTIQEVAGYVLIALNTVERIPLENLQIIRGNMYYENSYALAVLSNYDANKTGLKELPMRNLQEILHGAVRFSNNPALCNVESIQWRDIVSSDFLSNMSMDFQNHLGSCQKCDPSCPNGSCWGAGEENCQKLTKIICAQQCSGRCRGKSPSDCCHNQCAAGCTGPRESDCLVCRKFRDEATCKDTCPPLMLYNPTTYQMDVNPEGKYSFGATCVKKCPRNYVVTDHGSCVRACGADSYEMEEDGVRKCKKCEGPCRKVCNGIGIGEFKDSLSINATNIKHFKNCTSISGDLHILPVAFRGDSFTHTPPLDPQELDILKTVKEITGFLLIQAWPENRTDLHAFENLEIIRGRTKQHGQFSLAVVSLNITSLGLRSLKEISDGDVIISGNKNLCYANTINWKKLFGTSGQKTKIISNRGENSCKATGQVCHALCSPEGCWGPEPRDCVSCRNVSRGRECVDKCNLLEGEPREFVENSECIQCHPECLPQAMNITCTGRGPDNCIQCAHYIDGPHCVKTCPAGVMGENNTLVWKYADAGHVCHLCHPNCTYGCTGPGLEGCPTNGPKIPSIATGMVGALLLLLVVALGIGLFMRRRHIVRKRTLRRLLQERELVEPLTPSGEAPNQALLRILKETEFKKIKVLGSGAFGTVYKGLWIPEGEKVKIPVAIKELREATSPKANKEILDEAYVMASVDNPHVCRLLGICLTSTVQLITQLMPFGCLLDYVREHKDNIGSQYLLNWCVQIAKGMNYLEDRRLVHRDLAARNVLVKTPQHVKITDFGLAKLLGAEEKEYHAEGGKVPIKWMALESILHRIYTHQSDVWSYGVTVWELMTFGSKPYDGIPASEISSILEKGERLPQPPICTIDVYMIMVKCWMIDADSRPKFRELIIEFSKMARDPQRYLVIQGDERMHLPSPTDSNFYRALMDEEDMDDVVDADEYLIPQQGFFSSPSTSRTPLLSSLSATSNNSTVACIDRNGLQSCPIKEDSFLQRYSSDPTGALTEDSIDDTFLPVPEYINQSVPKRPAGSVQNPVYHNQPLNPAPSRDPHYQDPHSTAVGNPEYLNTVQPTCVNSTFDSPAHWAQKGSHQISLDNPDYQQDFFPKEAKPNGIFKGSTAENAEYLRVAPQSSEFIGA

[10] = Metabolic stability in human liver microsomes; type: in vitro ADME; conditions: for Remaining Percentage (%): Human
Stability in SIF = type: physicochemical

In the case of `C#Cc1cc(Nc2ncnc3cc(OCCOC)ccc23)cc(OCCOCC)c1` [Compound 1], the IC50 (CYP 2A6) is reported as over 50 µM, the “Remaining Percentage (%)” value (Stability in rat plasma; 0 min) is reported as 100.00% and the “Remaining Percentage (%)” value (Stability in rat plasma; 15 min) is reported as 92.93%. For the same molecule, the “Remaining Percentage (%)” value (Stability in rat plasma; 30 min) was 94.35%, the “Remaining Percentage (%)” value (Stability in rat plasma; 45 min) was 93.29% and the “Remaining Percentage (%)” value (Stability in rat plasma; 60 min) was 94.70%. The “Remaining Percentage (%)” value (Stability in rat plasma; 120 min) was 91.52%, the IC50 (CYP 3A4-M) was 43.8 µM and the “Remaining Percentage (%)” value ([1]; 0 min) was 100.00%. For the same molecule, the “Remaining Percentage (%)” value ([1]; 15 min) was 93.79%, the “Remaining Percentage (%)” value ([1]; 30 min) was 93.79% and the “Remaining Percentage (%)” value ([1]; 45 min) was 90.52%. The “Remaining Percentage (%)” value ([1]; 60 min) was 90.20%, the “Remaining Percentage (%)” value ([1]; 120 min) was 88.56% and the “Binding Difference ILK (Kd)/EGFR (Kd)” value (purified recombinant ILK; EnSpire fluorescence intensity) was 0.1565. The Kd (purified recombinant ILK; EnSpire fluorescence intensity, read-out: ILK - Binding affinity) was 2.77 µM, the Kd (purified recombinant ILK; fluorescence-based binding assay, purified ILK, read-out: KD to ILK) was about 2.77 µM and the IC50 (CYP 2B6) was over 50 µM. The “Remaining Percentage (%)” value ([2]; 0 min) was 100.00%, the “Remaining Percentage (%)” value ([2]; 15 min) was 96.17% and the “Remaining Percentage (%)” value ([2]; 30 min) was 96.17%. The “Remaining Percentage (%)” value ([2]; 45 min) was 97.56%, the “Remaining Percentage (%)” value ([2]; 60 min) was 96.17% and the “Remaining Percentage (%)” value ([2]; 120 min) was 93.73%. For the same molecule, the “off-target effect to kinases” value (kinases) was “minimal off-target effect”, the IC50 (CYP 2D6) was 27.6 µM and the IC50 (CYP 2C19) was 10.8 µM. For the same molecule, the recovery ([3]; Caco-2, Caco2, AP-BL, read-out: Recovery (%)AP-BL) was 51%, the recovery ([3]; Caco-2, Caco2, BL-AP, read-out: Recovery (%)BL-AP) was 53.5% and the efflux ratio ([3]; Caco-2, Caco2) was 0.48. The Papp A→B ([3]; Caco-2, Caco2, A-B) was 15.4 ×10⁻⁶ cm/s, the Papp B→A ([3]; Caco-2, Caco2, B-A) was 7.31 ×10⁻⁶ cm/s and the recovery [4] was 93.4%. For the same molecule, the fraction unbound ([4]; read-out: % Bound (converted)) was 0.0083, the “TNBC tumor growth in PDX mice” value [5] was “effectively inhibited TNBC tumor growth; also recorded: significantly reduced” and the recovery [6] was 110%. For the same molecule, the fraction unbound ([6]; read-out: % Bound) was 0.01, the half-life ([7]; Rat liver microsomes) was 16 min and the microsomal CLint ([7]; Rat liver microsomes, read-out: CLint (μL/min/mg protein)) was 86.6 µL/min/mg. The CLint scaled ([7]; Rat liver microsomes, read-out: Scaled-up CLint) was 155 mL/min/kg, the “Remaining Percentage (%)” value ([7]; With NADPH, 0 min) was 100.00% and the “Remaining Percentage (%)” value ([7]; With NADPH, 15 min) was 45.00%. For the same molecule, the “Remaining Percentage (%)” value ([7]; With NADPH, 30 min) was 21.08%, the “Remaining Percentage (%)” value ([7]; With NADPH, 45 min) was 11.69% and the “Remaining Percentage (%)” value ([7]; With NADPH, 60 min) was 7.65%. The “Remaining Percentage (%)” value ([7]; Without NADPH, 0 min) was 100.00%, the “Remaining Percentage (%)” value ([7]; Without NADPH, 15 min) was 95.03% and the “Remaining Percentage (%)” value ([7]; Without NADPH, 30 min) was 90.68%. For the same molecule, the “Remaining Percentage (%)” value ([7]; Without NADPH, 45 min) was 91.30%, the “Remaining Percentage (%)” value ([7]; Without NADPH, 60 min) was 102.48% and the IC50 (CYP 2C9) was 13.8 µM. The half-life ([8]; Mouse liver microsomes) was 35.4 min, the microsomal CLint ([8]; Mouse liver microsomes, read-out: CLint (μL/min/mg protein)) was 39.2 µL/min/mg and the CLint scaled ([8]; Mouse liver microsomes, read-out: Scaled-up CLint) was 172 mL/min/kg. For the same molecule, the “Remaining Percentage (%)” value ([8]; With NADPH, 0 min) was 100.00%, the “Remaining Percentage (%)” value ([8]; With NADPH, 15 min) was 72.40% and the “Remaining Percentage (%)” value ([8]; With NADPH, 30 min) was 51.67%. For the same molecule, the “Remaining Percentage (%)” value ([8]; With NADPH, 45 min) was 37.39%, the “Remaining Percentage (%)” value ([8]; With NADPH, 60 min) was 32.04% and the “Remaining Percentage (%)” value ([8]; Without NADPH, 0 min) was 100.00%. The “Remaining Percentage (%)” value ([8]; Without NADPH, 15 min) was 93.90%, the “Remaining Percentage (%)” value ([8]; Without NADPH, 30 min) was 93.90% and the “Remaining Percentage (%)” value ([8]; Without NADPH, 45 min) was 91.46%. The “Remaining Percentage (%)” value ([8]; Without NADPH, 60 min) was 94.51%, the IC50 (HepG2 cells; Galactose, read-out: IC50 (μM)_Galactose) was over 150 µM and the IC50 (HepG2 cells; Glucose, read-out: IC50 (μM)_Glucose) was over 150 µM. For the same molecule, the Compound precipitation (HepG2 cells; at 50 and 150 μM in mitochondrial toxicity assay) was “* Compound precipitation observed for Compound 1 at 50 and 150 μM”, the solubility [9] was 7.96 µM (≈ 3.24 µg/mL) and the “KD to EGFR” value (EGFR) was “too weak to be accurately determined”. It also gave a half-life ([10]; Human Liver Microsomes) of 34.8 min, a microsomal CLint ([10]; Human Liver Microsomes, read-out: CLint (μL/min/mg protein)) of 39.8 µL/min/mg and a CLint scaled ([10]; Human Liver Microsomes, read-out: Scaled-up CLint) of 49.9 mL/min/kg. The “Remaining Percentage (%)” value ([10]; With NADPH, 0 min) was 100.00%, the “Remaining Percentage (%)” value ([10]; With NADPH, 15 min) was 70.61% and the “Remaining Percentage (%)” value ([10]; With NADPH, 30 min) was 51.77%. The “Remaining Percentage (%)” value ([10]; With NADPH, 45 min) was 38.83%, the “Remaining Percentage (%)” value ([10]; With NADPH, 60 min) was 30.40% and the “Remaining Percentage (%)” value ([10]; Without NADPH, 0 min) was 100.00%. The “Remaining Percentage (%)” value ([10]; Without NADPH, 15 min) was 98.20%, the “Remaining Percentage (%)” value ([10]; Without NADPH, 30 min) was 92.81% and the “Remaining Percentage (%)” value ([10]; Without NADPH, 45 min) was 89.22%. For the same molecule, the “Remaining Percentage (%)” value ([10]; Without NADPH, 60 min) was 103.59%, the “Remaining Percentage (%)” value (Stability in SIF; 0 min) was 100.00% and the “Remaining Percentage (%)” value (Stability in SIF; 30 min) was 104.86%. The “Remaining Percentage (%)” value (Stability in SIF; 60 min) was 109.34%, the “Remaining Percentage (%)” value (Stability in SIF; 120 min) was 105.85% and the “Remaining Percentage (%)” value (Stability in SIF; 180 min) was 108.93%. The “Remaining Percentage (%)” value (Stability in SIF; 240 min) was 109.26%.
